{"source": "patent US20160051594A1", "about": "“Therapeutic Compositions and Uses Thereof” (MANUKA HEALTH NEW ZEALAND LIMITED, priority 2013, published 2016)", "key": {"[1]": {"test_system": "human colorectal adenocarcinoma cells (DLD-1)", "test": "MTT proliferation assay, DLD-1 cells (Examples 2 and 3)", "assay_type": "cell-based", "method": "Test samples shown below in Table 3 were assessed for their ability to modulate the viability and proliferation of human colorectal adenocarcinoma cells (DLD-1) as assessed by the MTT assay. A positive control, 5-Fluorouracil (5-FU) was included in addition to an unsupplemented cell control (negative control) in the study. All samples were normalized to 200 μg/ml total solids.\nThus, DLD-1 colon cancer cells were exposed to: • a tincture originally containing 25% solids by mass propolis which then diluted in the test solution to give 200 μg/ml total solids. The tincture was used to manufacture the cyclodextrin-encapsulated propolis samples. • Cyclodextrin propolis (γ-cyclodextrin encapsulated with 25% propolis tincture), CD1 from Table 2 in Example 1 • Cyclodextrin propolis+CAPE (γ-cyclodextrin encapsulated 25% propolis tincture with added CAPE to double the concentration of CAPE relative to the tincture), CD2 from Table 2 in Example 1 • γ-cyclodextrin alone (CAVAMAX W8 food gamma cyclodextrin) • 5-flurorouracil at 7.50 ng/ml as a positive control\nAll cyclodextrin-encapsulated samples and γ-cyclodextrin alone were assayed on a per weight of sample, and so contain at most 50 μg/ml total solids as propolis.\nHuman colorectal adenocarcinoma epithelial cell lines were revived from cryostorage and cultured in the presence of the test and reference samples. The culture conditions for the cells were those described by the supplier of the cells (ATCC). An MTT assay was then performed on the cultures to determine the effect of the samples on the cell proliferation.\n• 1. The human colorectal adenocarcinoma cells (DLD-1) obtained from the American Type Culture Collection USA were revived from cryostorage. • 2. Following initial propagation using the media described above (see Medium Preparation), the culture was subcultured using the trypsin-EDTA as follows. The media was removed and 5 ml of the trypsin-EDTA solution added and incubated at 37° C. for 5 min or until all the cells had detached. The trypsin was neutralised by adding an equal volume of DMEM medium and the culture centrifuged at 300 g (1200 rpm) for 5 min at 4° C. • 3. The supernatant was decanted and the cell pellets resuspended in medium DMEM, FBS (10%), penicillin (100 units/ml), streptomycin (100 μg/ml). The cells were cultured at 37° C. in 5% CO2/95% air. • 4. After reaching confluence, the cells were detached using trypsin-EDTA and centrifuged as described in 2 above. • 5. The supernatants were discarded and the cells resuspended in DMEM and supplements as described in 3 above at 7.5×10^4 cells per ml. A total volume of 23 mls of the cell suspension was required. • 6. Into each well of three 96 well plates, 180 μl of the cells ([…]) or medium was added as indicated in the plate layout below. The plates were incubated at 5% CO2/95% air at 37° C. for 8 h which was sufficient to allow the cells to strongly adhere. • 7. To each well, 20 μl of each of the test samples or positive control was added as indicated in the diagrams above. To the wells labelled ‘medium’ or ‘cells only’, 20 μl of 15% ETOH/HBSS was added. Each sample was assessed in replicates of 6, while the controls on all three plates were assessed in replicates of 9 (combined triplicates) • 8. The total volume in each well was 200 μl. • 9. The plates were incubated at 37° C. in 5% CO2/95% air for 19 h.\n• 1. On completion of the incubation, 20 μl of MTT working solution (5 mg/ml) was added to all wells and incubated for 2 hr at 37° C. in 5% CO2/95% air. • 2. 100 μl of MTT lysis buffer was then added and the plates incubated for 3 hr at 37° C. on a shaker in 5% CO2/95% air, followed by pipetting to break up and dissolve the crystals until fully solubilized. The plates were centrifuged at 1200 rpm for 10 minutes to pelletize any remaining insoluble material. From each well 200 μl aliquots were transferred to fresh 96 well plates. The plates were read by a VersaMax microplate reader at 570 nm. • 3. […]"}, "[2]": {"test_system": "human colorectal cancer cell line HCT-116", "test": "Apoptotic assay (PE Annexin V, flow cytometry), HCT-116", "assay_type": "cell-based", "settings": "for % Apoptosis: 50 hours", "method": "(§1) The human colorectal cell line HCT-116 was obtained from the American Type Culture Collection (Rockville, Md.). The butyrate resistant cell line was derived from HCT-116 by culturing the parental cells in increasing concentrations of butyrate as previously described in Bordonaro […]. The activation of beta-catenin by Wnt signaling mediates the effects of histone deacetylase inhibitors. Exp Cell Res. 2007; 313:1652-66 (including references therein). Colorectal cells were grown in alpha-MEM medium with 10% fetal bovine serum and antibiotics. The concentration of CAPE in the propolis-cyclodextrin complex CD1 was 1.79 μg/100 μg propolis solid encapsulated in the cyclodextrin, or 0.41 μg/100 μg cyclodextrin complex. Stock solutions were prepared in dimethyl sulfoxide, except for butyrate, which was dissolved in water at 1 M concentration. […] All cells (floating and attached) were harvested and stained for apoptotic and necrotic markers using a PE Annexin V Apoptosis Detection Kit I (BD Biosciences, #559763). Flow cytometry analyses were carried out with FACS Aria II and DiVa software. […] All data are presented as mean±standard deviation from at least three sets of independent experiments. Student T-test analysis was used to determine the significance of statistical differences. Differences were considered significant at P<0.05."}, "[3]": {"test_system": "HCT-116-R cells (butyrate resistant, derived from HCT-116)", "test": "Apoptotic assay (PE Annexin V, flow cytometry), butyrate-resistant HCT-116-R", "assay_type": "cell-based, human", "settings": "for % Apoptosis: HCT-116-R, 50 hours", "method": "as §1"}, "[4]": {"test_system": "human oesophageal squamous cell carcinoma cell line (KYSE-30)", "test": "Gastro-intestinal cancer anti-proliferative MTT assay, KYSE-30 (Examples 5-9)", "assay_type": "cell-based", "settings": "Example 9", "method": "Sample CD5 γ-cyclodextrin as prepared in Example 1 was assessed for its ability to modulate the viability and proliferation of human colorectal adenocarcinoma cells (DLD-1); human colon cancer cell line (HCT-116); human gastric carcinoma cell line (NCI-N87); and human oesophageal squamous cell carcinoma cell line (KYSE-30) as assessed by the MTT assay. The positive control, 5-fluorouracil (5-FU) was included at three concentrations; in addition to an unsupplemented cell control as a negative control in the study. [Do we include test compounds for comparison?.\nThe four human gastrointestinal carcinoma cell lines were revived from cryostorage and cultured in the presence of the test and reference samples. An MTT assay was then performed on the cultures to determine the effect of the samples on the cell viability and proliferation.\nThe test sample, and all other test samples in Examples 5-8 were dissolved in 15% ethanol/Hanks Balanced Salt Solution (ETOH)/HBSS to a concentration of 2 mg/mL solids. In the assay the final concentration of the samples was 200 μg/ml with a final EtOH concentration of 1.5%.\n• 1. Human colorectal adenocarcinoma cells (ATCC CCI-221, DLD-1)(ATCC, Bethesda, Md., USA) • 2. Human gastric carcinoma cells (ATCC CRL-5822, NCI-N87)(ATCC, Bethesda, Md., USA) • 3. Human oesophageal squamous cell carcinoma (ECACC, KYSE-30)(Sigma Aldrich, Auckland, NZ) • 4. Human colon carcinoma cells (ECACC HCT-116)(Sigma Aldrich, Auckland, NZ) • 5. Penicillin-streptomycin solution: 10000 units/ml penicillin, 10 mg/ml streptomycin in 0.9% NaCl (Sigma Cat #P-0781). Stored at −20° C. • 6. For DLD-1 cells: DMEM culture medium (Invitrogen Cat #12100-046). Stored at 4° C. • 7. For NCI-N87 cells: RPMI-1640 medium modified to contain 2 mM L-glutamine, 10 mM HEPES, 1 mM sodium pyruvate, 4500 mg/L glucose, and 1500 mg/L sodium bicarbonate (Sigma R6504). Stored at 4° C. • 8. For KYSE-410 cells: RPMI-1640 medium modified to contain 2 mM L-glutamine (Sigma R6504). Stored at 4° C. • 9. For HCT-116 cells: McCoy's 5A medium modified to contain 2 mM L-glutamine (Sigma M48792). Stored at 4° C. • 10. […]"}}}
{"smiles": "O=C(/C=C/c1ccc(O)c(O)c1)OCCc1ccccc1", "note": "[CAPE, caffeic acid phenethyl ester]", "values": [{"measurement": "Mean (OD 570 nm)", "setting": "[1]; DLD-1, 200 μg/ml", "value": 0.0777}, {"measurement": "% Apoptosis", "setting": "[2]; HCT-116, 1.2 ug/ml", "value": 18.3, "unit": "%"}, {"measurement": "apoptosis relative to the negative control", "setting": "[2]; HCT-116, CAPE 1.2 ug/ml", "value": "no significant increase in apoptosis"}, {"measurement": "% Apoptosis", "setting": "[3]; 1.2 ug/ml", "value": 9.7, "unit": "%"}, {"measurement": "apoptosis relative to the negative control", "setting": "[3]; HCT-R, CAPE 1.2 ug/ml alone", "value": "did not undergo significant apoptosis"}]}
{"smiles": "OC[C@H]1O[C@@H]2O[C@H]3[C@H](O)[C@@H](O)[C@@H](O[C@H]4[C@H](O)[C@@H](O)[C@@H](O[C@H]5[C@H](O)[C@@H](O)[C@@H](O[C@H]6[C@H](O)[C@@H](O)[C@@H](O[C@H]7[C@H](O)[C@@H](O)[C@@H](O[C@H]8[C@H](O)[C@@H](O)[C@@H](O[C@H]9[C@H](O)[C@@H](O)[C@@H](O[C@H]1[C@H](O)[C@H]2O)O[C@@H]9CO)O[C@@H]8CO)O[C@@H]7CO)O[C@@H]6CO)O[C@@H]5CO)O[C@@H]4CO)O[C@@H]3CO", "note": "[CAVAMAX W8 Food gamma Cyclodextrin, gamma-cyclodextrin]", "values": [{"measurement": "% inhibition", "setting": "[1]; DLD-1, 200 μg/ml", "value": 9.11, "unit": "%"}, {"measurement": "Mean (OD 570 nm)", "setting": "[1]; DLD-1, 200 μg/ml", "value": 0.6405}, {"measurement": "inhibition at 200 µg/mL", "setting": "[1]; Homo sapiens, DLD-1, DLD-1, 200 μg/ml", "value": 9.1, "unit": "%"}, {"measurement": "inhibition at 200 µg/mL", "setting": "[4]; Homo sapiens, KYSE-30, KYSE-30, 200 μg/ml", "value": 8.8, "unit": "%"}, {"measurement": "Mean (OD 570 nm)", "setting": "[4]; KYSE-30, 200 μg/ml", "value": 0.3056}, {"measurement": "% inhibition", "setting": "[4]; KYSE-30, 200 μg/ml, listed as Gamma-CD", "value": 8.85, "unit": "%"}]}
{"smiles": "O=c1cc(-c2ccccc2)oc2cc(O)cc(O)c12", "note": "[Chrysin]", "values": [{"measurement": "Mean (OD 570 nm)", "setting": "[1]; DLD-1, 200 μg/ml", "value": 0.1233}]}
{"smiles": "O=c1c(O)c(-c2ccccc2)oc2cc(O)cc(O)c12", "note": "[Galangin]", "values": [{"measurement": "Mean (OD 570 nm)", "setting": "[1]; DLD-1, 200 μg/ml", "value": 0.1411}]}
{"smiles": "CCCC(=O)O", "note": "[butyrate]", "values": [{"measurement": "% Apoptosis", "setting": "[2]; HCT-116, 5 mM", "value": 57.5, "unit": "%"}, {"measurement": "apoptosis relative to cells only", "setting": "[2]; HCT-116, butyrate 5 mM", "value": 35, "unit": "%"}, {"measurement": "% Apoptosis", "setting": "[3]; 5 mM", "value": 11.2, "unit": "%"}]}
